Laboratory results as given in article PMC8227400, “Novel N-Arylsulfonylindoles Targeted as Ligands of the 5-HT6 Receptor. Insights on the Influence of C-5 Substitution on Ligand Affinity” (Pharmaceuticals, 2021).

Assays:
[1] = molecular target: 5-HT6 receptor; details: cited from earlier work

| SMILES | melting point [°C] | Ki [1] [nM] |
| --- | --- | --- |
| COc1ccccc1N1CCN(CC(O)c2cn(S(=O)(=O)c3cccc4ccccc34)c3ccc(F)cc23)CC1 (centres unmarked) [4d, 1-(5-fluoro-1-(naphthalen-1-ylsulfonyl)-1H-indol-3-yl)-2-(4-(2-methoxyphenyl)piperazin-1-yl)ethan-1-ol] | 181.1 to 183.2 | – |
| O=S(=O)(c1cccc2ccccc12)n1cc(C(O)CN2CCN(c3ccccn3)CC2)c2cc(F)ccc21 (centres unmarked) [4e, 1-(5-fluoro-1-(naphthalen-1-ylsulfonyl)-1H-indol-3-yl)-2-(4-(pyridin-2-yl)piperazin-1-yl)ethan-1-ol] | 112 to 114 | – |
| O=S(=O)(c1cccc2ccccc12)n1cc(C(O)CN2CCN(c3ncccn3)CC2)c2cc(F)ccc21 (centres unmarked) [4g, 1-(5-fluoro-1-(naphthalen-1-ylsulfonyl)-1H-indol-3-yl)-2-(4-(pyrimidin-2-yl)piperazin-1-yl)ethan-1-ol] | 100 to 103 | – |
| COc1ccc2c(c1)c(C(O)CN1CCN(c3ccccc3OC)CC1)cn2S(=O)(=O)c1cccc2ccccc12 (centres unmarked) [4l, 1-(5-methoxy-1-(naphthalen-1-ylsulfonyl)-1H-indol-3-yl)-2-(4-(2-methoxyphenyl)piperazin-1-yl)ethan-1-ol] | 105 to 107 | – |
| COc1ccc2c(c1)c(CCN(C)C)cn2S(=O)(=O)c1ccccc1 [MS-245] | – | 2.3 |

The next lines start with results.

| melting point [°C] | SMILES | Ki [1] [nM] |
| --- | --- | --- |
| 94.5 to 96.4 | COc1ccccc1N1CCN(CC(O)c2cn(S(=O)(=O)c3ccc(I)cc3)c3ccc(F)cc23)CC1 (centres unmarked) [4a, 1-(5-fluoro-1-((4-iodophenyl)sulfonyl)-1H-indol-3-yl)-2-(4-(2-methoxyphenyl)piperazin-1-yl) ethan-1-ol] | – |
| 135 to 137 | O=S(=O)(c1ccc(I)cc1)n1cc(C(O)CN2CCN(c3ccccn3)CC2)c2cc(F)ccc21 (centres unmarked) [4b, 1-(5-fluoro-1-((4-iodophenyl)sulfonyl)-1H-indol-3-yl)-2-(4-(pyridin-2-yl)piperazin-1-yl)ethan-1-ol] | – |
| 164.1 to 165.8 | O=S(=O)(c1cccc2ccccc12)n1cc(C(O)CN2CCOCC2)c2cc(F)ccc21 (centres unmarked) [4f, 1-(5-fluoro-1-(naphthalen-1-ylsulfonyl)-1H-indol-3-yl)-2-morpholinoethan-1-ol] | – |
| 101 to 104 | COc1ccc2c(c1)c(C(O)CN1CCN(c3ccccc3OC)CC1)cn2S(=O)(=O)c1ccc(I)cc1 (centres unmarked) [4j, 1-(1-((4-iodophenyl)sulfonyl)-5-methoxy-1H-indol-3-yl)-2-(4-(2-methoxyphenyl)piperazin-1-yl)ethan-1-ol] | – |
| 120 to 124 | COc1ccc2c(c1)c(C(O)CN1CCOCC1)cn2S(=O)(=O)c1ccc(I)cc1 (centres unmarked) [4k, 1-(1-((4-iodophenyl)sulfonyl)-5-methoxy-1H-indol-3-yl)-2-morpholinoethan-1-ol] | – |
| 190 to 192 | COc1ccc2c(c1)c(C(O)CN1CCOCC1)cn2S(=O)(=O)c1cccc2ccccc12 (centres unmarked) [4m, 1-(5-methoxy-1-(naphthalen-1-ylsulfonyl)-1H-indol-3-yl)-2-morpholinoethan-1-ol] | – |
